Calls of active or inactive are those of the source. The calls are words filed in the database; no cut-off is given here. Positions of bridges follow the written chain, without caps; N, C: chain ends. Non-standard residues stand in square brackets, D forms with d. Residues, ends and D or L forms follow the SMILES beside them. *: point of attachment. Benzoyl(2-OMe,5-SO2F) = COc1ccc(S(=O)(=O)F)cc1C(=O)*; S5 = C=CCCC[C@](C)(N)C(=O)O; Dap = NC[C@H](N)C(=O)O
How the values were obtained:
A549 [1] = assay: Potentiation of etoposide-induced apoptosis in NucLight Red-labeled human A549 cells assessed as decrease in cell viability at 10 uM measured for 24 to 72 hrs in presence of etoposide by IncuCyte S3 live cell analysis; format: functional, cell-based; conditions: time 24-72 hrs
A549 [2] = assay: Induction of apoptosis in NucLight Red-labeled human A549 cells assessed as decrease in cell viability at 10 uM measured for 24 to 72 hrs by IncuCyte S3 live cell analysis; format: functional, cell-based; conditions: time 24-72 hrs
[3] = target: T1, Induced myeloid leukemia cell differentiation protein Mcl-1 (Homo sapiens, UniProt Q07820); assay: Displacement of biotinylated BH3 peptide from N-terminal His6-tagged human Mcl-1 ligand binding domain (172 to 323 residues) expressed in Escherichia coli BL21(DE3) gold pLysS cells preincubated with protein for 2 hrs followed by incubation with BH3 peptide for 2 hrs by DELFIA assay
T1 sequence (Q07820 whole entry, the tested form may be a part): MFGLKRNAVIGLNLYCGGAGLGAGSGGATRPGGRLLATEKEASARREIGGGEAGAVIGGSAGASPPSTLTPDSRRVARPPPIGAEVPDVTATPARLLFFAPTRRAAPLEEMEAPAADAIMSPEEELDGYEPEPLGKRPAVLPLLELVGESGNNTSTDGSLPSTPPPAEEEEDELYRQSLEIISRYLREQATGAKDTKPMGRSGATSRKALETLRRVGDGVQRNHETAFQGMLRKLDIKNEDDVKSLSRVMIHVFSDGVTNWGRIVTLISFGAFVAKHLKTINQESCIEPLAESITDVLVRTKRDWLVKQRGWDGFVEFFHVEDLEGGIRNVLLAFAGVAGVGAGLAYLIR

[4] = target: T1, Induced myeloid leukemia cell differentiation protein Mcl-1; assay: Covalent binding affinity to N-terminal His6-tagged human Mcl-1 ligand binding domain (172 to 323 residues) expressed in Escherichia coli BL21(DE3) gold pLysS cells assessed as increase in mass of protein at 100 uM incubated for 16 hrs by LC-MS analysis
Homo sapiens [5] = species on record: Homo sapiens; assay: Covalent binding affinity to N-terminal His6-tagged human Mcl-1 ligand binding domain (172 to 323 residues) Lys234Ala mutant expressed in Escherichia coli BL21(DE3) gold pLysS cells assessed as increase in mass of protein at 100 uM incubated for 16 hrs by LC-MS analysis
[6] = target: T1, Induced myeloid leukemia cell differentiation protein Mcl-1; assay: (§1) Covalent binding affinity to N-terminal His6-tagged human Mcl-1 ligand binding domain (172 to 323 residues) expressed in Escherichia coli BL21(DE3) gold pLysS cells assessed as stable covalent adduct formation by measuring band shift at 100 uM incubated for 16 hrs by SDS PAGE analysis
Homo sapiens [7] = species on record: Homo sapiens; assay: as §1, with “residues) Lys234Ala mutant” for “residues)”
Homo sapiens [8] = species on record: Homo sapiens; assay: as §1, with “residues) His252Ala mutant” for “residues)”
[9] = target: T2, Bcl-2-related protein A1 (Homo sapiens) (UniProt Q16548); assay: Covalent binding affinity to N-terminal His6-tagged human Bfl-1 (1 to 149 residues) assessed as band shift at 100 uM incubated for 16 hrs by SDS PAGE analysis
T2 sequence (whole entry): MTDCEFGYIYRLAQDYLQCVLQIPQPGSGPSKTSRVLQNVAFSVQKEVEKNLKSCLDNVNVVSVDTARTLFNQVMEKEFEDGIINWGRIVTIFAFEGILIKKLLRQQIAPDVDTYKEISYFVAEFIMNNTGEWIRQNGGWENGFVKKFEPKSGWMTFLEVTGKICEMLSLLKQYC

[10] = target: T1, Induced myeloid leukemia cell differentiation protein Mcl-1; assay: Covalent binding affinity to N-terminal His6-tagged human Mcl-1 ligand binding domain (172 to 323 residues) expressed in Escherichia coli BL21(DE3) gold pLysS cells assessed as stable covalent adduct formation by measuring reaction half life at 100 uM incubated for 16 hrs by SDS PAGE analysis
[11] = target: T1, Induced myeloid leukemia cell differentiation protein Mcl-1; assay: (§2) Covalent binding affinity to His252 residue of N-terminal His6-tagged 13C(epsilon)-methionine-labeled human Mcl-1 ligand binding domain (172 to 323 residues) expressed in Escherichia coli BL21(DE3) gold pLysS cells assessed as chemical shift perturbations by measuring 1H methyl resonances for binding site Thr259 and Ile181 residues at 100 uM by 1D 1H-aliphatic NMR spectroscopy
[12] = target: T1, Induced myeloid leukemia cell differentiation protein Mcl-1; assay: as §2, with “13C/1H” for “1H”, “Met250 residue” for “Thr259 and Ile181 residues”, “2D [1H,13C]-aliphatic” for “1D 1H-aliphatic”
[13] = target: T1, Induced myeloid leukemia cell differentiation protein Mcl-1; assay: Covalent binding affinity to 15N-labeled human Mcl-1 ligand binding domain (172 to 323 residues) assessed as broadening of binding site His224 resonance at 250 uM in presence of BIM BH3 peptide by 2D[15N,1H]HMQC spectroscopy
[14] = target: T1, Induced myeloid leukemia cell differentiation protein Mcl-1; assay: Covalent binding affinity to 15N-labeled human Mcl-1 ligand binding domain (172 to 323 residues) assessed as His252 resonance at 250 uM in presence of BIM BH3 peptide by 2D[15N,1H]HMQC spectroscopy
A549 [15] = assay: Induction of cell lysis in NucLight Red-labeled human A549 cells assessed as cell bursting at 100 uM measured after 20 mins by IncuCyte S3 live cell analysis based fluorescence microscopy; format: toxicity; conditions: a549, 20 min
[16] = target: T1, Induced myeloid leukemia cell differentiation protein Mcl-1; assay: Covalent binding affinity to His residues of Mcl-1 in NucLight Red-labeled human A549 cell lysates assessed as stable adduct formation by measuring band shift at 100 uM incubated for 3 hrs by western blot analysis; format: subcellular
[17] = target: T1, Induced myeloid leukemia cell differentiation protein Mcl-1; assay: Covalent binding affinity to His residues of Mcl-1 in intact NucLight Red-labeled human A549 cells assessed as stable adduct formation by measuring band shift at 50 to 100 uM incubated for 12 hrs with treatment replenishment for every 3 hrs by western blot analysis; format: cell-based; conditions: dose 50-100 µM
A549 [18] = assay: Induction of apoptosis in NucLight Red-labeled human A549 cells assessed as decrease in cell viability at 50 uM measured for 24 to 72 hrs by IncuCyte S3 live cell analysis; format: functional, cell-based; conditions: time 24-72 hrs
A549 [19] = assay: Potentiation of etoposide-induced apoptosis in NucLight Red-labeled human A549 cells assessed as decrease in cell viability at 50 uM measured for 24 to 72 hrs in presence of etoposide by IncuCyte S3 live cell analysis; format: functional, cell-based; conditions: time 24-72 hrs
[20] = target: T2, Bcl-2-related protein A1 (Homo sapiens); assay: Displacement of biotinylated BH3 peptide from N-terminal His6-tagged human Bfl-1 (1 to 149 residues) preincubated with protein for 2 hrs followed by incubation with BH3 peptide for 2 hrs by DELFIA assay; conditions: time 4.0 hrs
[21] = target: T1, Induced myeloid leukemia cell differentiation protein Mcl-1; assay: Covalent binding affinity to N-terminal His6-tagged human Mcl-1 ligand binding domain (172 to 323 residues) expressed in Escherichia coli BL21(DE3) gold pLysS cells assessed as stable covalent adduct formation by measuring reaction half life at 100 uM incubated for 16 hrs by LC-MS analysis

SMILES: Cc1nn(C)c(COc2ccc(N3CCN(S(=O)(=O)N(C)C)CC3)cc2)c1-c1cccc2c(CCCOc3cccc4ccccc34)c(C(=O)O)n(CCN3CCOCC3)c12
- Activity (A549 [1]): Active
- Activity (A549 [2]): inactive

SMILES: CC[C@H](C)[C@H](NC(=O)[C@H](CNC(=O)c1cc(S(=O)(=O)F)ccc1OC)NC(C)=O)C(=O)N[C@@H](C)C(=O)N[C@@H](CCC(=O)O)C(=O)N[C@@H](CCC(N)=O)C(=O)N[C@@H](CC(C)C)C(=O)N[C@@H](CCCNC(=N)N)C(=O)N[C@@]1(C)CCC/C=C\CCC[C@@](C)(C(=O)N[C@@H](Cc2ccccc2)C(N)=O)NC(=O)[C@H](CC(=O)O)NC(=O)CNC(=O)[C@H]([C@@H](C)CC)NC1=O (Ac-[Dap](Benzoyl(2-OMe,5-SO2F))IAEQLR[S5]IGD[S5]F-NH2; staple (Z) 8-12)
- IC50 [3]: 0.018 µM
- Activity [4]: 1740 Da
- Activity (Homo sapiens [5]): 1740 Da
- Activity [6]: Active
- Activity (Homo sapiens [7]): Active
- Activity (Homo sapiens [8]): Active
- Activity [9]: inactive
- T1/2 [10]: 6 h
- Activity [11]: Active
- Activity [12]: Active
- Activity [13]: Active
- Activity [14]: Active
- Activity (A549 [15]): Non-Toxic
- Activity [16]: Active
- Activity [17]: Active
- Activity (A549 [18]): inactive
- Activity (A549 [19]): Active
- Activity [20]: inactive
- T1/2 [21]: 6 h
